The values below come from ChEMBL document CHEMBL1777763, “Discovery of a nortropanol derivative as a potent and orally active GPR119 agonist for type 2 diabetes” (Bioorg Med Chem Lett, 2011).

In data set [1] the test system is Mus musculus. In words: Antidiabetic activity in laen mouse model assessed as reduction in blood glucose level at 10 mg/kg, po up to 60 mins by oral glucose tolerance test. The format is functional. The note with it: 1 h.
Data set [2] deals with Rattus norvegicus. In words: Antidiabetic activity in lean anesthetized rat hyperglycemic clamp model assessed as increase in insulin level at 1 mg/kg, iv relative to control.
Another data set addresses hERG (KCNH2) (Homo sapiens, UniProt Q12809). In words: Inhibition of human ERG at 10 uM.
The nature of data set [3]: Plasma concentration in lean mouse at 10 mg/kg, po after 60 mins. The format is ADME, organism-based. Set-up: dose 10 mg/kg, route oral.
Data set [4] has as its system Mus musculus. In words: Antidiabetic activity in laen mouse model assessed as reduction in blood glucose level at 30 mg/kg, po up to 60 mins by oral glucose tolerance test. The format is functional. The note with it: 1 h.
In a further data set the target is Cytochrome P450 3A4 (Homo sapiens, UniProt P08684). Briefly: Inhibition of CYP3A4. The format is ADME.
Sequence of Cytochrome P450 3A4 (P08684 whole entry): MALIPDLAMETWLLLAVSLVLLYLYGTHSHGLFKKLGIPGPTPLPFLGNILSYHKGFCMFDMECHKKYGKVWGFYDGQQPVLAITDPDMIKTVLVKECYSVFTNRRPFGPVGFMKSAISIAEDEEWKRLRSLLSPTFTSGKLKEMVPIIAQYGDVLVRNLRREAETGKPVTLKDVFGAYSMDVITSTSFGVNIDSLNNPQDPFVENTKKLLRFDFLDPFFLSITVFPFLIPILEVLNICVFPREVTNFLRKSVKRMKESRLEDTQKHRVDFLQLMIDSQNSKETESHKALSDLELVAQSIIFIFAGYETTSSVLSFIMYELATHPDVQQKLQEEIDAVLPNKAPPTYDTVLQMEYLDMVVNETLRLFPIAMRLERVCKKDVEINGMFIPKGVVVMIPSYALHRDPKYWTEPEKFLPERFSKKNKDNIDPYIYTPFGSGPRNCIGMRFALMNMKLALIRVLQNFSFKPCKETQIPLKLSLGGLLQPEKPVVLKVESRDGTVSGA
Data set [5] is described as follows: Tmax in monkey at 3 mg/kg, po. Further details: dose 3 mg/kg, route oral. The note with it: rhesus monkey, in vivo. The format is ADME, organism-based, Macaca mulatta.
The nature of data set [6]: Plasma concentration in lean mouse at 30 mg/kg, po after 60 mins. The format is ADME, organism-based. Further details: dose 30 mg/kg, route oral.
A short description of data set [7]: Plasma concentration in mouse at 3 mg/kg, po after 1 hr. The format is ADME, organism-based. Further details: dose 3 mg/kg, route oral.
The target in data set [8] is T1, Glucose-dependent insulinotropic receptor (Mus musculus) (UniProt Q7TQP3).
T1 sequence (whole entry): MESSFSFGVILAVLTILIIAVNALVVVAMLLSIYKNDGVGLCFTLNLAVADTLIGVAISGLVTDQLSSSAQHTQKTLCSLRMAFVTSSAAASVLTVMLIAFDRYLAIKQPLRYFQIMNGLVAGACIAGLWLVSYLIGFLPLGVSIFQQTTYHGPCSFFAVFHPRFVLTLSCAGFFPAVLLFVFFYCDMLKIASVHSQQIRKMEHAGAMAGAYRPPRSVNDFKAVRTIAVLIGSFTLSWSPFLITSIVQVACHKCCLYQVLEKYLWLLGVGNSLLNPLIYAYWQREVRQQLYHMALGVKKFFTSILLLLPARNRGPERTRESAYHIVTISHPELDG
Briefly: Agonist activity at mouse GPR119 expressed in HEK293 cells assessed as maximal stimulation of cMAP level by cell-based cAMP assay relative to 21. The format is functional. (In general: Cyclic AMP is a second messenger, typically raised through Gs and lowered through Gi signalling.)

In the next data set the target is Cytochrome P450 2D6 (Homo sapiens, UniProt P10635). Briefly: Inhibition of CYP2D6. The format is ADME.
Sequence of Cytochrome P450 2D6 (P10635 whole entry): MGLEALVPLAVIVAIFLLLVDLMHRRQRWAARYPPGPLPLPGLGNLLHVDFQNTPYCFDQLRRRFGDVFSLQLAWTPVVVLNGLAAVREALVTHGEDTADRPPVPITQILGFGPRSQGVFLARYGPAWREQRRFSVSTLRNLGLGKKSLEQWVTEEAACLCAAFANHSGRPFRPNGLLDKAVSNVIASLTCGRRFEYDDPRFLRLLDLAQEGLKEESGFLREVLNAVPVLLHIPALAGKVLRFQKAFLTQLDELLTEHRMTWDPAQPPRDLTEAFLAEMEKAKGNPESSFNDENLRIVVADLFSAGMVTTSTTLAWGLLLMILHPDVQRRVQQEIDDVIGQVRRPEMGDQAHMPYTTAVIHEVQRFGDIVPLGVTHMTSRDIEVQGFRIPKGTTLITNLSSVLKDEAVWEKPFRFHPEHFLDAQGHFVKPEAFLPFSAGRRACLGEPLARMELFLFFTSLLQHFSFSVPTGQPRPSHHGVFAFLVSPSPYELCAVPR
Data set [9] relates to Rattus norvegicus. In words: AUC (0 to 6 hrs) in rat at 10 mg/kg, po. The format is ADME, organism-based, Plasma. Set-up: time < 6 hr, dose 10 mg/kg, route oral. The note with it: in vivo.
Data set [10] deals with Probable G-protein coupled receptor 160 (Homo sapiens) (UniProt Q9UJ42). Briefly: Inhibition of GPCR-1 at 10 uM.
Sequence of Probable G-protein coupled receptor 160 (Homo sapiens) (Q9UJ42 whole entry): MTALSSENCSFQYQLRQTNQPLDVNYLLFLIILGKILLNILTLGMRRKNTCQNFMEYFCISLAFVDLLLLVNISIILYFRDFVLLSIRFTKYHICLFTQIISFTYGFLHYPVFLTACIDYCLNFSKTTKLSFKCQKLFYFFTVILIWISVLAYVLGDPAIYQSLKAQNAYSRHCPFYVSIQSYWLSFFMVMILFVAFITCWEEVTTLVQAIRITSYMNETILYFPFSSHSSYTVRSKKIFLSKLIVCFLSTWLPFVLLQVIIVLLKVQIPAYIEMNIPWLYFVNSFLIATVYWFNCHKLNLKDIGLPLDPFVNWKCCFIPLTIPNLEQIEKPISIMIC
The next data set deals with Salmonella typhimurium. In words: Genotoxicity in Salmonella Typhimurium by Ames test. The format is toxicity, organism-based. The note with it: salmonella enterica subsp. enterica serovar typhimurium.
The target in data set [11] is T2, Glucose-dependent insulinotropic receptor (Mus musculus, UniProt Q7TQP3).
T2 sequence (Q7TQP3 whole entry): T1 sequence (whole entry)
Briefly: Agonist activity at mouse GPR119 expressed in HEK293 cells assessed as stimulation of cMAP level by cell-based cAMP assay. The format is functional.

The next data set concerns the target Cytochrome P450 2C9 (Homo sapiens, UniProt P11712). In words: Inhibition of CYP2C9. The format is ADME.
A short description of data set [12]: Cmax in monkey at 3 mg/kg, po. The format is ADME, organism-based, Macaca mulatta. Further details: dose 3 mg/kg, route oral. The note with it: rhesus monkey, in vivo.
The test system of data set [13] is Mus musculus. In words: Antidiabetic activity in overnight fasted mouse model assessed as blood glucose level at 3 mg/kg, po followed by 30 mins after administered 3 g/kg, po glucose by oral glucose tolerance test (reference value: 100 %). The format is functional.
The subject of data set [14] is Mus musculus. In words: Antidiabetic activity in laen mouse model assessed as reduction in blood glucose level at 3 mg/kg, po up to 60 mins by oral glucose tolerance test. The note with it: 1 h. The format is functional.
Another data set has as its target T3, PXR (NR1I2) (Homo sapiens, UniProt O75469).
T3 sequence (O75469 whole entry): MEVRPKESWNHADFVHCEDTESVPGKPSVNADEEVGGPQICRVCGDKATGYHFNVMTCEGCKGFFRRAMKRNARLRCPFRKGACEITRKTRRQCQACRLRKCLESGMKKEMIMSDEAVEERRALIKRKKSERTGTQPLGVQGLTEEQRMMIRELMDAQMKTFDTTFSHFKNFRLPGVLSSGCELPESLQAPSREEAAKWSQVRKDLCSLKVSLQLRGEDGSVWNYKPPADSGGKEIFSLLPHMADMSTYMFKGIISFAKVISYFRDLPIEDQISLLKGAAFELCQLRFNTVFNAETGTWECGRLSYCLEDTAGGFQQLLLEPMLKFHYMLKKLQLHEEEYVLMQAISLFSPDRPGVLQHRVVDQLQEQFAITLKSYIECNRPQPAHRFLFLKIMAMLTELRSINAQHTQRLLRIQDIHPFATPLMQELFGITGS
Briefly: Inhibition of human PXR transfected in HepG2 cells at 10 uM. The format is cell-based. The note with it: HepG2 cells transfected with human PXR.

A further data set has as its system Rhesus monkey. In words: AUC (0 to 24 hrs) in monkey at 3 mg/kg, po. The format is ADME, organism-based, Macaca mulatta, Plasma. Further details: time < 24 hr, dose 3 mg/kg, route oral. The note with it: in vivo.
Data set [15] in a line: Plasma concentration in lean mouse at 3 mg/kg, po after 60 mins. The format is ADME, organism-based. Further details: dose 3 mg/kg, route oral.

Each structure is given as a SMILES string. Activity calls are given as the source filed them. The rule behind the calls is not given here.

Sequence of Cytochrome P450 2C9 (P11712 whole entry): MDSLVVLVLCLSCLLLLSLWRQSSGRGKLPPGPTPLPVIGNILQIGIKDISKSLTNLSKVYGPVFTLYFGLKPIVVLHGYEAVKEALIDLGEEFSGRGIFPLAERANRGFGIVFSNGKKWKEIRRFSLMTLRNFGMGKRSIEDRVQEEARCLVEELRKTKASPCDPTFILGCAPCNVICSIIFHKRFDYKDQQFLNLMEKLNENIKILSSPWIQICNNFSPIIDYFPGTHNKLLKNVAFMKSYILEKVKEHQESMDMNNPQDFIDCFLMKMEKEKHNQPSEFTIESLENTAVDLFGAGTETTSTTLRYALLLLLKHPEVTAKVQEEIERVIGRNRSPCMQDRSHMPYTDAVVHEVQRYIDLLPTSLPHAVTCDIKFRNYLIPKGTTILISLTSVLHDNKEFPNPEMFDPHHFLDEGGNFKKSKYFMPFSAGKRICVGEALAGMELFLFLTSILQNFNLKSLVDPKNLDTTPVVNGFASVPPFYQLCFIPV
Sequence of hERG (KCNH2) (Q12809 whole entry): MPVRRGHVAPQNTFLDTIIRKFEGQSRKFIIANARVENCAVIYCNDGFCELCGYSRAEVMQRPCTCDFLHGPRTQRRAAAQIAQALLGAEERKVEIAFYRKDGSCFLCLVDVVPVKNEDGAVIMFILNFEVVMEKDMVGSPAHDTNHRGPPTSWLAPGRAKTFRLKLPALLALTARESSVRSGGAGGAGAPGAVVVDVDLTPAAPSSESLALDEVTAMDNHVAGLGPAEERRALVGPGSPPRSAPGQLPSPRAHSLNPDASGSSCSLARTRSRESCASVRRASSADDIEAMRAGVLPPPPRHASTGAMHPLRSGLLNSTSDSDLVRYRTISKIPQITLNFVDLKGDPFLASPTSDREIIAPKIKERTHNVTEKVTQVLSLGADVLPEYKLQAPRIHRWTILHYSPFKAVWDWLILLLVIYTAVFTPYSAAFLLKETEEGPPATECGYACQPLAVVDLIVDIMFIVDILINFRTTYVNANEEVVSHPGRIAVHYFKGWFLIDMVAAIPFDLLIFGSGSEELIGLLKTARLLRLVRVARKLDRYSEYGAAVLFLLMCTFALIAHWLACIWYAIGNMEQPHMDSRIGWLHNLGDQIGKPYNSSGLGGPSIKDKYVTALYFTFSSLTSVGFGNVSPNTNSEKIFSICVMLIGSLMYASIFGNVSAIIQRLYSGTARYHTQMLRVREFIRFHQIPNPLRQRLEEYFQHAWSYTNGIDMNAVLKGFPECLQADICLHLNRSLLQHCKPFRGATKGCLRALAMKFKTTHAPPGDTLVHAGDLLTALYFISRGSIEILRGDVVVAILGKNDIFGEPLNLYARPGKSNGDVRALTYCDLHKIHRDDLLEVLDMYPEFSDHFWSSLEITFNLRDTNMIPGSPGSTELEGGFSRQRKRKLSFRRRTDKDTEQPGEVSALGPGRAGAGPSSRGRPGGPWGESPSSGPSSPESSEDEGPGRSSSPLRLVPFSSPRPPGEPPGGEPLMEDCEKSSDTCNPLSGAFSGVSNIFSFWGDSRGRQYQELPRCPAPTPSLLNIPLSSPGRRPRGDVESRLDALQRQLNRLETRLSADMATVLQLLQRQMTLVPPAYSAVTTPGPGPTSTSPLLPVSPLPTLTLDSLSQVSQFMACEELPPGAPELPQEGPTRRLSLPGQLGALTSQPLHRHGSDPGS

Usually inhibition in vivo stands for the relative decrease from the control value, in per cent. A word on the inhibition: it is the share of the control response that was lost under treatment. What is called IC50 is the concentration that gives 50% inhibition. For orientation: Tmax means the time from dosing to the highest level. Broadly, the AUC is the area under the concentration-time curve, a measure of exposure. For orientation: EC50 means the midpoint of the concentration-response curve. A word on the Cmax: it is the peak of the concentration-time curve. On to `Cc1c(Nc2ccc(C#N)cc2Cl)ncnc1O[C@H]1CC2CC[C@@H](C1)N2S(=O)(=O)C1CC1` (single isomer, unassigned), for which, in the data set with Mus musculus [1], the inhibition in vivo at 10 mg/kg stood at 30%. The result with Rattus norvegicus [2] was Active. Besides, the inhibition at 10 µM at hERG (KCNH2) amounted to 9%; at PXR (NR1I2), 0.09%. Further, the concentration at 1 h in data set [3] is 800 nM; in [6], 1400 nM; in [7], 275 nM; in data set [15], 400 nM. For the same molecule, the inhibition in vivo at 30 mg/kg in the data set on Mus musculus [4] came out at 39%. Moreover, the IC50 against Cytochrome P450 3A4, against Cytochrome P450 2D6 and against Cytochrome P450 2C9 was above 20 µM each time. Also, in data set [5], the Tmax stood at 4.5 h. Further, the figures for the Activity (in data set [8]; in the data set on Salmonella typhimurium) were 110% and “Non-toxic”, respectively. For the same molecule, the figures for the AUC with Rattus norvegicus [9] and in the data set with Rhesus monkey were 2.17 µM·h and 16.5 µM·h, respectively. The molecule further gave an inhibition in data set [10] below 30%. Further, the EC50 in [11] was found to be 0.14 µM. The highest level in [12] (Cmax) was 997 nM. For the same molecule, in the data set with Mus musculus [13], the “Blood glucose (% of vehicle)” value came out at 91%. The inhibition in vivo at 3 mg/kg in the data set with Mus musculus [14] came to 28%.
